Assay results as given in the supplement of paper PMC10307832.

Tests used:
Test in all cases: relative viability (nuclei count vs DMSO), 5 days (fraction); higher = more cells survive
[1] = tested on: NCI-H520
Procedure, shortened: (§1)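 For relative viability, nuclei counts in treated wells were divided by those in vehicle wells. Lung cancer cell lines had been pin-tool dosed in 1536-well plates the day after seeding and cultured for 5 days, then fixed and stained in one step (final 0.05% Triton X-100, 1% formaldehyde, 1 ug/ml Hoechst) and imaged at 4×. Doses were one drug alone or a fixed anchor-drug dose plus five library-drug doses (not always all listed) in √10 steps, and values are duplicate-plate medians.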

[2] = tested on: IA-LM
Procedure, shortened: as §1

[3] = tested on: NCI-H1299
Procedure, shortened: as §1

[4] = tested on: Calu-6
Procedure, shortened: as §1

[5] = tested on: LCLC-103H
Procedure, shortened: as §1

[6] = tested on: EBC-1
Procedure, shortened: as §1

[7] = tested on: NCI-H1355
Procedure, shortened: as §1

[8] = tested on: NCI-H1703
Procedure, shortened: as §1

[9] = tested on: A549
Procedure, shortened: as §1

Oc1nc(-c2ccc(C(F)(F)F)cc2)nc2c1CSCC2 [XAV939] + CS(=O)(=O)N1CCN(Cc2cc3nc(-c4cccc5[nH]ncc45)nc(N4CCOCC4)c3s2)CC1 [Pictilisib] (partner 1 µM)
relative viability ([1]; first compound 0.08 µM): 0.24
relative viability ([1]; first compound 0.253 µM): 0.251
relative viability ([1]; first compound 0.8 µM): 0.236
relative viability ([1]; first compound 2.53 µM): 0.227
relative viability ([2]; first compound 0.08 µM): 0.449
relative viability ([2]; first compound 0.253 µM): 0.317
relative viability ([2]; first compound 0.8 µM): 0.245
relative viability ([2]; first compound 2.53 µM): 0.17
relative viability ([3]; first compound 0.08 µM): 0.857
relative viability ([3]; first compound 0.253 µM): 0.701
relative viability ([3]; first compound 0.8 µM): 0.642
relative viability ([3]; first compound 2.53 µM): 0.511
relative viability ([4]; first compound 0.08 µM): 1.09
relative viability ([4]; first compound 0.253 µM): 0.843
relative viability ([4]; first compound 0.8 µM): 0.972
relative viability ([4]; first compound 2.53 µM): 0.841
relative viability ([5]; first compound 0.08 µM): 0.724
relative viability ([5]; first compound 0.253 µM): 0.483
relative viability ([5]; first compound 0.8 µM): 0.601
relative viability ([5]; first compound 2.53 µM): 0.498
relative viability ([6]; first compound 0.08 µM): 0.437
relative viability ([6]; first compound 0.253 µM): 0.346
relative viability ([6]; first compound 0.8 µM): 0.329
relative viability ([6]; first compound 2.53 µM): 0.261
relative viability ([7]; first compound 0.08 µM): 0.414
relative viability ([7]; first compound 0.253 µM): 0.374
relative viability ([7]; first compound 0.8 µM): 0.387
relative viability ([7]; first compound 2.53 µM): 0.236
relative viability ([8]; first compound 0.08 µM): 0.275
relative viability ([8]; first compound 0.253 µM): 0.243
relative viability ([8]; first compound 0.8 µM): 0.258
relative viability ([8]; first compound 2.53 µM): 0.241
relative viability ([9]; first compound 0.08 µM): 0.629
relative viability ([9]; first compound 0.253 µM): 0.491
relative viability ([9]; first compound 0.8 µM): 0.372
relative viability ([9]; first compound 2.53 µM): 0.296

CC1(C)CCC(c2ccc(Cl)cc2)=C(CN2CCN(c3ccc(C(=O)NS(=O)(=O)c4ccc(N[C@H](CCN5CCOCC5)CSc5ccccc5)c(S(=O)(=O)C(F)(F)F)c4)cc3)CC2)C1 [Navitoclax] + CS(=O)(=O)N1CCN(Cc2cc3nc(-c4cccc5[nH]ncc45)nc(N4CCOCC4)c3s2)CC1 [Pictilisib] (partner 1 µM)
relative viability ([1]; first compound 0.005 µM): 0.305
relative viability ([1]; first compound 0.01581 µM): 0.374
relative viability ([1]; first compound 0.05 µM): 0.3
relative viability ([1]; first compound 0.1581 µM): 0.322
relative viability ([1]; first compound 0.5 µM): 0.281
relative viability ([2]; first compound 0.005 µM): 0.466
relative viability ([2]; first compound 0.01581 µM): 0.321
relative viability ([2]; first compound 0.05 µM): 0.404
relative viability ([2]; first compound 0.1581 µM): 0.457
relative viability ([2]; first compound 0.5 µM): 0.292
relative viability ([3]; first compound 0.005 µM): 0.717
relative viability ([3]; first compound 0.01581 µM): 0.943
relative viability ([3]; first compound 0.05 µM): 0.874
relative viability ([3]; first compound 0.1581 µM): 0.822
relative viability ([3]; first compound 0.5 µM): 0.819
relative viability ([4]; first compound 0.005 µM): 0.891
relative viability ([4]; first compound 0.01581 µM): 1.03
relative viability ([4]; first compound 0.05 µM): 1.01
relative viability ([4]; first compound 0.1581 µM): 0.775
relative viability ([4]; first compound 0.5 µM): 0.752
relative viability ([5]; first compound 0.005 µM): 0.588
relative viability ([5]; first compound 0.01581 µM): 0.611
relative viability ([5]; first compound 0.05 µM): 0.664
relative viability ([5]; first compound 0.1581 µM): 0.611
relative viability ([5]; first compound 0.5 µM): 0.799
relative viability ([6]; first compound 0.005 µM): 0.411
relative viability ([6]; first compound 0.01581 µM): 0.378
relative viability ([6]; first compound 0.05 µM): 0.448
relative viability ([6]; first compound 0.1581 µM): 0.575
relative viability ([6]; first compound 0.5 µM): 0.138
relative viability ([7]; first compound 0.005 µM): 0.461
relative viability ([7]; first compound 0.01581 µM): 0.42
relative viability ([7]; first compound 0.05 µM): 0.416
relative viability ([7]; first compound 0.1581 µM): 0.497
relative viability ([7]; first compound 0.5 µM): 0.427
relative viability ([8]; first compound 0.005 µM): 0.244
relative viability ([8]; first compound 0.01581 µM): 0.28
relative viability ([8]; first compound 0.05 µM): 0.263
relative viability ([8]; first compound 0.1581 µM): 0.239
relative viability ([8]; first compound 0.5 µM): 0.245
relative viability ([9]; first compound 0.005 µM): 0.418
relative viability ([9]; first compound 0.01581 µM): 0.425
relative viability ([9]; first compound 0.05 µM): 0.685
relative viability ([9]; first compound 0.1581 µM): 0.51
relative viability ([9]; first compound 0.5 µM): 0.504

C=C1C(=O)O[C@@H](CCCCCCCC)[C@@H]1C(=O)O [C-75] + CS(=O)(=O)N1CCN(Cc2cc3nc(-c4cccc5[nH]ncc45)nc(N4CCOCC4)c3s2)CC1 [Pictilisib] (partner 1 µM)
relative viability ([1]; first compound 0.08 µM): 0.24
relative viability ([1]; first compound 0.253 µM): 0.357
relative viability ([1]; first compound 0.8 µM): 0.309
relative viability ([1]; first compound 2.53 µM): 0.224
relative viability ([1]; first compound 8 µM): 0.297
relative viability ([2]; first compound 0.08 µM): 0.448
relative viability ([2]; first compound 0.253 µM): 0.294
relative viability ([2]; first compound 0.8 µM): 0.266
relative viability ([2]; first compound 2.53 µM): 0.358
relative viability ([2]; first compound 8 µM): 0.375
relative viability ([3]; first compound 0.08 µM): 0.785
relative viability ([3]; first compound 0.253 µM): 0.825
relative viability ([3]; first compound 0.8 µM): 0.737
relative viability ([3]; first compound 2.53 µM): 0.826
relative viability ([3]; first compound 8 µM): 0.634
relative viability ([4]; first compound 0.08 µM): 0.985
relative viability ([4]; first compound 0.253 µM): 1.07
relative viability ([4]; first compound 0.8 µM): 0.811
relative viability ([4]; first compound 2.53 µM): 0.714
relative viability ([4]; first compound 8 µM): 0.817
relative viability ([5]; first compound 0.08 µM): 0.573
relative viability ([5]; first compound 0.253 µM): 0.641
relative viability ([5]; first compound 0.8 µM): 0.517
relative viability ([5]; first compound 2.53 µM): 0.568
relative viability ([5]; first compound 8 µM): 0.488
relative viability ([6]; first compound 0.08 µM): 0.43
relative viability ([6]; first compound 0.253 µM): 0.355
relative viability ([6]; first compound 0.8 µM): 0.315
relative viability ([6]; first compound 2.53 µM): 0.361
relative viability ([6]; first compound 8 µM): 0.179
relative viability ([7]; first compound 0.08 µM): 0.477
relative viability ([7]; first compound 0.253 µM): 0.48
relative viability ([7]; first compound 0.8 µM): 0.348
relative viability ([7]; first compound 2.53 µM): 0.507
relative viability ([7]; first compound 8 µM): 0.465
relative viability ([8]; first compound 0.08 µM): 0.247
relative viability ([8]; first compound 0.253 µM): 0.266
relative viability ([8]; first compound 0.8 µM): 0.235
relative viability ([8]; first compound 2.53 µM): 0.214
relative viability ([8]; first compound 8 µM): 0.249
relative viability ([9]; first compound 0.08 µM): 0.475
relative viability ([9]; first compound 0.253 µM): 0.571
relative viability ([9]; first compound 0.8 µM): 0.514
relative viability ([9]; first compound 2.53 µM): 0.309
relative viability ([9]; first compound 8 µM): 0.497
